The text below walks through data of article PMC9145144, “Virtual Screening and Hit Selection of Natural Compounds as Acetylcholinesterase Inhibitors” (Molecules, 2022).

Converted amounts (≈) assume the structure as drawn. “And” between values parts separate entries of the source, which are not always exact repeats. Equal entries are not always repeated. “Also recorded” adds a separate entry of the source. Where two headings read alike, the source gives them in different places.

Assay [1] can be described thus: ABTS radical scavenging activity. Conditions: for ABTS (%) radical scavenging activity: absorbance at 734 nm after 7 min, triplicate, means ± SD, BHT 1 mM in MeOH, na = not active; for antioxidant activity (in words): ABTS radical scavenging. The method, then:
[…] (ABTS), potassium persulphate, and butylhydroxy toluol (BHT) were purchased from Sigma-Aldrich. For ABTS assay, the procedure followed the method of Grochowski et al. with some modifications. The stock solutions included 7 mM ABTS solution and 2.4 mM potassium persulphate solution. The working solution was then prepared by mixing the two stock solutions in equal quantities and allowing them to react for 14 h at room temperature in the dark. […] A fresh ABTS solution was prepared for each assay. […] of each com-pound (125 μL) was allowed to react with 1850 μL of the ABTS solution, and the absorbance was taken at 734 nm after 7 min. The control contains 125 μL methanol and 1850 μL of the ABTS solution. All determinations were performed in triplicate (n = 3). The results were expressed as % ABTS activity, using the following equation: % ABTS radical scavenging activity = ((Acontrol − Asample)/Acontrol) × 100, where Acontrol is the absorbance of the control, while Asample is the absorbance of the sample. Butylhydroxytoluene (BHT) (1 mM in MeOH) was used as a positive control.

Assay [2] addresses acetylcholinesterase from Electrophorus electricus (Electrophorus electricus, UniProt O42275). The assay is described as follows: biochemical. Particulars: for IC50: triplicate, means ± SD, na = not active. Type of assay: biochemical.
The test system of another assay is AChE. Conditions: cited from earlier work.
The subject of a further assay is BChE. Conditions: cited from earlier work.
On the set-up of assay [3]: method as in doi:10.1016/j.phytol.2015.03.012. Particulars: cited from earlier work.
The next assay deals with NMDA receptor. Conditions: NMDA receptor antagonists; cited from earlier work.
Setting [4] is: Ellman's method, read-out: IC50.

acetylcholinesterase from Electrophorus electricus, sequence (O42275 24-633): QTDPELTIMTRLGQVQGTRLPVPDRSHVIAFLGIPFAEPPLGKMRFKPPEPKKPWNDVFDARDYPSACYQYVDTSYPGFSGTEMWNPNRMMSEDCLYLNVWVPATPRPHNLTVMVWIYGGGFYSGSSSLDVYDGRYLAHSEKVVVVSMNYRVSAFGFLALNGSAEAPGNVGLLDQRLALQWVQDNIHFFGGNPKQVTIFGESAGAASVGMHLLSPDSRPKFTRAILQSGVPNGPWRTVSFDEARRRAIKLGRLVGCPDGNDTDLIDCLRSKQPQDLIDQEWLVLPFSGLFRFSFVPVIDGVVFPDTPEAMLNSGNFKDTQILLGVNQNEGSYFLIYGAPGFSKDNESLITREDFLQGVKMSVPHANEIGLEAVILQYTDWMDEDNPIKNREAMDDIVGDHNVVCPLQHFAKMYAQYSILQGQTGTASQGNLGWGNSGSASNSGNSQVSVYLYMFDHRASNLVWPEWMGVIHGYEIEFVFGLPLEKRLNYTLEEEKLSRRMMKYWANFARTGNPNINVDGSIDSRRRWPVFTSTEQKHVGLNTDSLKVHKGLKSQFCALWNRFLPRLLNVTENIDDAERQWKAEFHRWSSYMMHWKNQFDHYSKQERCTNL

On to `Cc1cc(C(C)(C)C)c(O)c(C(C)(C)C)c1` [BHT, butylhydroxytoluene, reference compound], for which the “ABTS (%) radical scavenging activity” value in assay [1] is 92.38% and 92.38 ± 0.21%.
`O=C(Cn1ccc2ccc(F)cc21)NC[C@@H]1CCCN2CCCC[C@H]12` [Compound 9, N-{[(1S,9aR)-octahydro-1H-quinolizin-1-yl]methyl}-2-(6-fluoro-1H-indol-1-yl)acetamide]: the “AChE inhibitory activity (in words)” value in assay [2] (Ellman's method) is “micro- to low millimolar range”. Besides, the IC50 in assay [2] (setting [4]) is 1000 to 2000 µM and 1800 µM. Also, in assay [1], the “ABTS (%) radical scavenging activity” value is 6.43% and 6.43 ± 0.85%.
In the case of `CC(=O)Nc1ccc(N[C@@H]2OC(=O)c3c2c2ccccc2n3C)cc1` [Compound 16, (R)-N-(4-((4-methyl-3-oxo-3,4-dihydro-1H-furo [3,4-b]indol-1-yl)amino)phenyl)acetamide], the “AChE inhibitory activity (in words)” value in assay [2] (Ellman's method) is given as “no AChE activity”. Further, in assay [1], the “antioxidant activity (in words)” value is “higher than that of the positive control”; the “ABTS (%) radical scavenging activity” value was 95.82% and 95.82 ± 0.21%.
Turning to `O=C1C2CCCN2C(=O)c2ccccc2N1CCc1ccccc1` (centres unmarked) [Compound 17], the IC50 in assay [2] (setting [4]) was > 10000 µM.
As for `Cc1ccc(NC(=O)C[C@H]2NCCc3c([nH]c4ccccc34)C2=O)cc1` [Compound 21, N-(4-methylphenyl)-2-{5-oxo-1H,2H,3H,4H,5H,6H-azepino [4,5-b]indol-4-yl} acetamide], the “AChE inhibitory activity (in words)” value in assay [2] (Ellman's method) is on record as “micro- to low millimolar range”. For the same compound, in assay [2] (setting [4]), the IC50 was 1000 to 2000 µM and 1200 µM. In assay [1], the “ABTS (%) radical scavenging activity” value is 34.68% and 34.68 ± 1.27%.
For the compound `O=C(/C=C/c1ccccc1)N1C[C@@H]2C[C@H](C1)c1cccc(=O)n1C2` [Compound 22, (1S,9R)-11-[(2E)-3-phenylprop-2-enoyl]-7,11-diazatricyc lotrideca-2,4-dien-6-one], the “AChE inhibitory activity (in words)” value in assay [2] (Ellman's method) is “micromolar range; also recorded: micro- to low millimolar range”. The same compound had an IC50 in assay [2] (IC50, Ellman's method) of 390 ± 160 µM.
In the case of `CC1CCc2c([nH]c3ccccc23)C2(N1)C(=O)Nc1ccccc12` (centres unmarked) [Compound 28, 3-methyl-1′,2′,3,4,5,10-hexahydro-2H-spiro[azepino [3,4-b]indole-1,3′-indol]-2′-one], the “AChE inhibitory activity (in words)” value in assay [2] (Ellman's method) is recorded as “micromolar range; also recorded: micro- to low millimolar range”. Also, in assay [2] (setting [4]), the IC50 was 620 ± 140 µM. In assay [1], the “antioxidant activity (in words)” value is given as “high antioxidant activity”; the “ABTS (%) radical scavenging activity” value was 80.94% and 70.55 ± 0.85%.
Consider `C=CCN1C(=O)C2(NCCc3c2[nH]c2ccc(C)cc32)c2ccccc21` (centres unmarked) [Compound 29, 6′-methyl-1-(prop-2-en-1-yl)-1,2,2′,3′,4′,9′-hexahydrospiro[indole-3,1′-pyrido [3,4-b]indol]-2-one], for which the “AChE inhibitory activity (in words)” value in assay [2] (Ellman's method) is “micro- to low millimolar range”. Further, in assay [2] (setting [4]), the IC50 was > 5000 µM and 5700 µM. In assay [1], the “antioxidant activity (in words)” value is given as “high antioxidant activity”; the “ABTS (%) radical scavenging activity” value is 70.55% and 80.94% and 80.94 ± 0.94%.
Take `O=c1cccc2n1C[C@@H]1CNC[C@H]2C1` [Cytisine]: the “inhibition of AChE (in words)” value with AChE is on record as “does not inhibit”. Further, the “inhibition of BChE (in words)” value in the assay with BChE was “does not inhibit”.
Regarding `O=C1O[C@H]([C@@H](O)CO)C(O)=C1O` [ascorbic acid], the “IC50 scavenging activity in the ABTS model” value in assay [3] is 105.90 µg/mL (≈ 601 µM).
Take `CC[C@H]1C[C@@H]2CN3CCc4c([nH]c5ccccc45)[C@](C(=O)OC)(C2)[C@H]13` [coronaridine]: at NMDA receptor, the Ki was 6.2 µM.
Take Ibogaine: on NMDA receptor, the inhibition constant (Ki) was 1.1 µM.

What is called IC50 is the midpoint of a concentration-inhibition curve. One may read the Ki as a measure of affinity in units of concentration, obtained from inhibition or displacement.
